From publication PMC5021961, “Generation of self-clusters of galectin-1 in the farnesyl-bound form” (Scientific Reports, 2016)
pKd: −log10 of the molar value.

Biological target: T1, human galectin-1 (Gal-1) (Homo sapiens, UniProt P09382)
T1 construct: gene LGALS1
Experiment: Trp68 fluorescence titration (equilibrium fit with Hill coefficient […]), fluorescence lifetime, UV resonance Raman, CD, native PAGE self-clustering
Format: binding

T1 sequence (P09382 2-135): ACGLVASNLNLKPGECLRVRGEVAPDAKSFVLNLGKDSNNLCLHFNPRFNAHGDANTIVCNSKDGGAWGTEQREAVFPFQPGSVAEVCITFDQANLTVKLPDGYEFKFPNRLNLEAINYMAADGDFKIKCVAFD

- pKd: ~5.64
SMILES: CC(C)=CCC/C(C)=C/CC/C(C)=C/CSc1ccccc1C(=O)O [FTS, farnesyl thiosalicylic acid]
